Source: US20260041693A1, “COMBINATION THERAPY OF CDK7 INHIBITORS WITH OTHER ANTI-CANCER THERAPIES” (QURIENT CO., LTD., priority 2022, published 2026)
pIC50: −log10 of the molar value.

Key:
RENCA cells = experiment: Cell viability assay (CellTiter-Glo); type: cell-based; settings: Mus musculus, 72 hours, read-out: IC50 of RENCA cell growth/viability
Procedure: RENCA renal adenocarcinoma were treated with various concentrations of compound 47 for 72 hours. Cell viability was measured using the CellTiter-Glo assay system (Promega). Luminescence units were normalized to those of untreated cells and are presented as the percentage of cell viability. IC50 was calculated using the dose-response curve generated by GraphPad Prism.

CDK7 = target: T1, CDK7 (Mus musculus, UniProt Q03147); experiment: Target occupancy assay (Bio-compound 3 pull-down, anti-CDK7 blot); type: cell-based; settings: RENCA cells treated 4 hours; lysate incubated with 1 μM Bio-compound 3
T1 construct: endogenous in cells; host or cells: RENCA cells
T1 sequence (Q03147 2-346 limits assumed): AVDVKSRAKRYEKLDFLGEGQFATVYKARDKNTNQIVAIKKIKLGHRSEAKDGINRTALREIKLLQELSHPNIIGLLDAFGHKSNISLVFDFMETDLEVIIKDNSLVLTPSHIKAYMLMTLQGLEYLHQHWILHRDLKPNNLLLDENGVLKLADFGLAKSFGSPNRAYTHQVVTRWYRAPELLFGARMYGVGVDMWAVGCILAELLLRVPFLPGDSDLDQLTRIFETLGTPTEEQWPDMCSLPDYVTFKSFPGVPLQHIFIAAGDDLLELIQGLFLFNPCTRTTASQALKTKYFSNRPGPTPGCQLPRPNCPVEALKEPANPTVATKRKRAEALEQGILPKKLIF
T1 sequence (Q61458 1-323 partner): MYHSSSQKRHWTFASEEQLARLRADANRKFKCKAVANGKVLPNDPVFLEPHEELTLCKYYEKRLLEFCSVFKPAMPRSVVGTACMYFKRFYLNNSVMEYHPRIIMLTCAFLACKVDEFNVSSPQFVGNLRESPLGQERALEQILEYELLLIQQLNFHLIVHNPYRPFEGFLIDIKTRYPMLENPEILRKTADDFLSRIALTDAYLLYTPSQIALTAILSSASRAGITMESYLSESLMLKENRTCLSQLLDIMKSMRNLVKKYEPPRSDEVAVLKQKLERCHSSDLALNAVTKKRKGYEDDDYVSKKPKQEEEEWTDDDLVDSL
T1 sequence (P51949 1-309 partner): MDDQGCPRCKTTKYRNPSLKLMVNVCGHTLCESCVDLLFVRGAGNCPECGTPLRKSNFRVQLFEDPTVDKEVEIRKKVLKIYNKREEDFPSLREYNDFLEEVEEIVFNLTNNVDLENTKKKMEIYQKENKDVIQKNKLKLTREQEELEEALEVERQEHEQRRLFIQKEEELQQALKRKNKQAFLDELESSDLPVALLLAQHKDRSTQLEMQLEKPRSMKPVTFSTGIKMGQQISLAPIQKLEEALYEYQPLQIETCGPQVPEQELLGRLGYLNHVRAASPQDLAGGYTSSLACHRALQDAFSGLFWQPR
Procedure: RENCA cells were treated with various concentrations of compound 47 for 4 hours. Cells were washed with ice-cold PBS twice and then lysed with ice-cold lysis buffer (0.025M Tris, 0.15M NaCl, 0.001M EDTA, 1% NP-40, 5% glycerol, pH 7.4) with protease and phosphatase cocktails (Sigma-Aldrich). Lysed cells were centrifuged at 12,000 rpm at 4′C for 10 minutes and then the supernatant was collected. Protein concentrations were determined using a BCA protein quantification kit (Thermo Fisher Scientific, #23227). Equal amounts of protein were incubated with 1 μM of biotinylated compound 3 (Bio-compound 3; biotinylated analog of compound 47) at 4′C overnight and then immunoprecipitated with streptavidin-agarose bead. Pull-downed proteins were eluted, loaded to SDS-PAGE, transferred to a PVDF membrane (MilliporeSigma), and then treated with anti-CDK7 antibody. CDK7 protein was detected by HRP-conjugated secondary antibody. The image was obtained by ImageQuant™ LAS4000.

[1] = system: phosphorylated form of H2AX (Ser139) in RENCA cells; experiment: Western blot analysis of phosphorylated H2AX; type: cell-based, mouse; settings: 48 hours
Procedure: RENCA cells were treated with various concentrations of compound 47 in 5% CO2 at 37′C for 48 hours. Cells were washed with ice-cold PBS twice and lysis buffer was added. Cells were collected and kept on the ice for 30 min. Lysed cells were centrifuged at 12,000 rpm at 4′C for 10 minutes, and then the supernatant was collected. Protein concentrations were quantified using a BCA protein Quantification kit. Equal amounts of protein were fractionated by SDS-PAGE, transferred to a PVDF membrane, and then treated with anti-phospho-H2AX (Ser139) antibody. The phosphorylated form of H2AX protein was detected by HRP-conjugated secondary antibody and the signal was obtained with Super Signal Western blot enhancer. The image was acquired by ImageQuant™ LAS 4000.

RENCA tumor = experiment: RENCA syngeneic renal tumor mouse model; type: in vivo, BALB/c mice; settings: compound 47 10 mg/kg i.p. every day; anti-PD-1 antibody 10 mg/kg i.p. twice a week; alone or both
Procedure: RENCA cells (1×10^5) were subcutaneously implanted in the right flank of BALB/c mice. Tumor-bearing mice were randomized and then treated with compound 47 (10 mg/kg, intraperitoneally every day), anti-PD-1 antibody (10 mg/kg, intraperitoneally twice a week, clone: RMP1-14, Bio X Cell), or both compound 47 and anti-PD-1 antibody when the average tumor volume reached 31 mm^3 (N=7 or 8 per group). Control mice were treated with vehicle and rat IgG2a isotype control antibody (clone: 2A3, Bio X Cell). Tumor volume and body weight were measured twice per week.

OVCAR3 tumor = experiment: OVCAR3 high-grade serous ovarian cancer cell line-derived xenograft model; type: in vivo, BALB/c nude mice; settings: compound 47 3 mg/kg i.p. every day; olaparib 100 mg/kg orally every day; alone or both
Procedure: (§1) OVCAR3 cells (1×10^7) mixed with matrigel (50:50) were subcutaneously implanted in the right flank of female BALB/c nude mice. Tumor-bearing mice were randomized and treated with compound 47 (3 mg/kg, intraperitoneally every day), olaparib (100 mg/kg, orally every day), or both compound 47 and olaparib when the average tumor volume reached 173 mm^3 (N=8 per group). Tumor volume and body weight were measured twice per week.

DU145 tumor = experiment: DU145 castration-resistant prostate cancer cell line-derived xenograft model; type: in vivo, BALB/c nude mice; settings: compound 47 3 mg/kg i.p. every day; docetaxel 15 mg/kg i.p. once a week; alone or both
Procedure: DU145 cells (1×10^7) mixed with matrigel (50:50) were subcutaneously implanted in the right flank of male BALB/c nude mice. Tumor-bearing mice were randomized and then treated with compound 47 (3 mg/kg, intraperitoneally every day), docetaxel (15 mg/kg, intraperitoneally once a week), or both compound 47 and docetaxel when the average tumor volume reached 154 mm^3 (N=8 per group). Tumor volume and body weight were measured twice per week.

MCF7 tumor = experiment: MCF7 human breast adenocarcinoma xenograft model; type: in vivo, BALB/c nude mice; settings: compound 47 3 mg/kg i.p. every day; fulvestrant 2.5 mg/dose s.c. every day; alone or both
Procedure: as §1, with “MCF7” for “OVCAR3”, “fulvestrant (2.5 mg/dose, subcutaneously” for “olaparib (100 mg/kg, orally”, “fulvestrant” for “olaparib”, “117” for “173”, “week. […] On day 28, tumor volume of the compound 47 with fulvestrant combination group was reduced compared to the compound 47 alone group or the fulvestrant treatment group.” for “week.”

[2] = system: g-H2AX foci in OVCAR3 cells; experiment: g-H2AX foci imaging in OVCAR3 cells after cisplatin; type: cell-based, human; settings: 100 nM cisplatin 24 hours, wash, then Compound 47, 24, 48 and 72 hours
Procedure: OVCAR3 cells were treated with DMSO or 100 nM of cisplatin for 24 hours. Cells were then washed with culture media and treated with Compound 47 at various concentrations. Cells were collected 24, 48 and 72 hours after cisplatin wash and then stained with 4′,6-diamidino-2-phenylindole (DAPI) and anti-phospho-histone H2AX ([…]). g-H2AX foci inside the nucleus were identified by Alexa-568 staining. Fluorescence images of g-H2AX foci were captured using a confocal imaging system, CQ1 (×40 objective).

[3] = system: g-H2AX or 53BP1 foci in PC3 cells; experiment: g-H2AX / 53BP1 foci imaging in PC3 cells after X-ray irradiation; type: cell-based, human; settings: Compound 47 1 hour then X-ray 8, 4 or 2 Gy, 24 hours after irradiation
Procedure: PC3 cells were treated with DMSO or various concentrations of Compound 47 for 1 hour. Cells were then irradiated with X-ray at set of 225 KV, 17.7 mA for 5 min using a Faxitron Specimen Radiography System (8 Gy, 4 Gy and 2 Gy irradiation, FIGS. 7A-7C, and 7D-7F, respectively). Cells were collected at 1-, 4-, 6-, 24- and 48-hour post X-ray irradiation and stained with HOECHST and anti-phospho-histone H2AX ([…]) or 53BP1. g-H2AX or 53BP1 foci inside the nucleus were identified with Alexa Flour488. Fluorescence images of the foci were obtained using Opera Phenix 3 High-content screening system (×40 objective) and the average granule number f SD of g-H2AX (FIG. 7A to 7C) or of 53BP1 (FIG. 7D to 7F) per cell was determined using MetaXpress software.

| Structure (SMILES) | TGI (OVCAR3 tumor) | TGI (DU145 tumor) | TGI (MCF7 tumor) | further results |
| --- | --- | --- | --- | --- |
| C=C(F)C(=O)Nc1ccc2c(-c3ccccc3CNc3nc(NC[C@H]4CCNC[C@@H]4O)nc4c(C(C)C)cnn34)nccc2c1 [Compound 47] | 36% | 61% | 81% | pIC50 (RENCA cells): 7.70; CDK7 occupancy (CDK7): in a dose dependent manner; phosphorylation of H2AX at Serine-139 [1]: induced phosphorylation of H2AX at the Serine-139 residue in a dose dependent manner; tumor growth inhibition (TGI) (RENCA tumor): 50.2%; percentage of g-H2AX-positive cells (g-H2AX foci) [2]: increased the percentage of g-H2AX foci in a time- and dose-dependent manner; DNA damage sustaining effect (granule number of g-H2AX or 53BP1 per cell) [3]: significant DNA damage sustaining effects |
| CC(=O)O[C@@]12CO[C@@H]1C[C@H](O)[C@@]1(C)C(=O)[C@H](O)C3=C(C)[C@@H](OC(=O)[C@H](O)[C@@H](NC(=O)OC(C)(C)C)c4ccccc4)C[C@@](O)([C@@H](OC(=O)c4ccccc4)[C@H]21)C3(C)C [docetaxel, reference compound] |  | 25% |  |  |
| C[C@]12CC[C@@H]3c4ccc(O)cc4C[C@@H](CCCCCCCCC[S+]([O-])CCCC(F)(F)C(F)(F)F)[C@H]3[C@@H]1CC[C@@H]2O (stereo partly drawn) [fulvestrant, reference compound] |  |  | 81% |  |
| O=C(c1cc(Cc2n[nH]c(=O)c3ccccc23)ccc1F)N1CCN(C(=O)C2CC2)CC1 [olaparib, reference compound] | 38% |  |  |  |
